Data from US9593305B2, “Differentiation of pluripotent stem cells” (Janssen Biotech, Inc., priority 2008, dated 2017).

Tests used:
[1] = tested on: H1 human embryonic stem cells; assay: Screen of CDK, GSK3 and TRK inhibitors with or without GDF-8, SOX17 and cell number (Example 20, Table 17); type: cell-based; settings: Plate 1; for Cell Number, % of positive control / Sox17 Expression, % of positive control: positive control = Activin A/Wnt3a
Protocol: Briefly, clusters of H1 human embryonic stem cells were grown on reduced growth factor Matrigel™ (Invitrogen; Cat #356231) coated tissue culture plastic. Cells were passaged using collagenase (Invitrogen; Cat #17104-019) treatment and gentle scraping, washed to remove residual enzyme, and plated with even dispersal at a ratio of 1:1 (surface area) on reduced growth factor […]™ (BD Biosciences; Cat #356231)-coated 96-well black plates (Packard ViewPlates; PerkinElmer; Cat #6005182) using volumes of 100 μl/well. Cells were allowed to attach and then recover log phase growth over a 1 to 3 day time period, feeding daily with MEF conditioned medium supplemented with 8 ng/ml bFGF (R&D Systems; Cat #233-FB). Plates were maintained at 37° C., 5% CO2 in a humidified box throughout the duration of assay.
Screening was conducted using the compounds described in Table 16. […] Compounds were made available as 5 mM stocks in 96-well plate format, solubilized in 100% DMSO (Sigma; Cat #D2650) and stored at −80° C. The library compounds were further diluted to an intermediate concentration of 0.2 mM in 50 mM HEPES (Invitrogen; Cat #15630-080), 20% DMSO and stored at 4° C. Test conditions were performed in triplicate, feeding on alternating days over a four-day assay period. Assay was initiated by aspirating culture medium from each well followed by three washes in PBS (Invitrogen; Cat #14190) to remove residual growth factors. On the first day of assay, test volumes of 200 μl per well were added to each well using DMEM:F12 base medium (Invitrogen; Cat #11330-032) supplemented with 0.5% FCS (HyClone; Cat #SH30070.03) and 100 ng/ml GDF-8 (R&D Systems, Cat #788-G8) plus 2.5 μM compound. A parallel set of test samples were treated in an identical manner but omitting GDF-8 from the medium. On the third day of assay, test volumes of 100 μper well were added to each well using DMEM:F12 base medium supplemented with 2% FCS plus 100 ng/ml GDF-8 (R&D Systems, Cat #788-G8). […] Positive control samples contained the same base medium supplemented with FCS and 100 ng/ml recombinant human activin A (PeproTech; Cat #120-14) throughout the four day assay along with Wnt3a (20 ng/ml) addition on days 1 and 2. Negative control samples contained DMEM:F12 base medium supplemented with FCS.
At the conclusion of four-days of culture, assay plates were washed twice with PBS (Invitrogen; Cat #14190), fixed with 4% paraformaldehyde (Alexis Biochemical; Cat #ALX-350-011) at room temperature for 20 minutes, then washed three times with PBS and permeabilized with 0.5% Triton X-100 (Sigma; Cat #T8760-2) for 20 minutes at room temperature. Cells were washed again three times with PBS and blocked with 4% chicken serum (Invitrogen; Cat #16110082) in PBS for 30 minutes at room temperature. Primary antibody (goat anti-human SOX17; R&D Systems; Cat #AF1924) was diluted 1:100 in 4% chicken serum and added to each well for one hour at room temperature. Alexa Fluor 488 conjugated secondary antibody (chicken anti-goat IgG; Molecular Probes; Cat #AZ1467) was diluted 1:200 in PBS and added to each sample well after washing three times with PBS. To counterstain nuclei, 4 μg/ml Hoechst 33342 (Invitrogen; Cat #H3570) was added for ten minutes at room temperature. Plates were washed once with PBS and left in 100 μl/well PBS for imaging.
Imaging was performed using an IN Cell Analyzer 1000 (GE Healthcare) utilizing the 51008bs dichroic for cells stained with Hoechst 33342 and Alexa Fluor 488. Exposure times were optimized from positive control wells and from untreated negative control wells stained with secondary antibody alone. Images from 15 fields per well were acquired to compensate for any cell loss during the bioassay and subsequent staining procedures. Measurements for total cell number and total SOX17 intensity were obtained from each well using IN Cell Developer Toolbox 1.7 (GE Healthcare) software. […]

[2] = tested on: CDK, GSK3, and/or TRK signaling pathways; assay: Primary selectivity of the proprietary small molecules (Table 16); settings: as listed in Table 17
Protocol: A subset of 14 proprietary small molecules, known to have specificity for the CDK, GSK3, and/or TRK signaling pathways were evaluated for their potential to differentiate human embryonic stem cells to cells expressing markers characteristic of the definitive endoderm lineage.

[3] = compound in combination with GDF8

Compound | Cell Number, Average Total Cell Number ([1]; compound alone, No GDF8) | Sox17 Expression, Average Total Intensity ([1]; compound alone, No GDF8) | Cell Number, % of positive control ([1]; compound alone, No GDF8) | Sox17 Expression, % of positive control ([1]; compound alone, No GDF8) | Cell Number, Average Total Cell Number [1, 3] | Sox17 Expression, Average Total Intensity [1, 3] | Cell Number, % of positive control [1, 3] | Sox17 Expression, % of positive control [1, 3] | Compound Selectivity [2] | Compound Selectivity ([2]; GDF8 treatment) | Compound Selectivity ([2]; No GDF8 treatment)
Nc1nccc(-c2cccc(Nc3ncc4nnn(-c5cccc(CNC(=O)C6CC6)c5)c4n3)c2)n1 [Compound 8, N-{[3-(5-{[3-(2-Aminopyrimidin-4-yl)phenyl]amino}-3H-1-[1,2,3]triazolo[4,5-d]pyrimidin-3-yl)phenyl]methyl}cyclopropanecarboxamide] | 13235 | 3.8E+05 | 91.4 % of positive control | 0.2 % of positive control | 5018 | 4.7E+07 | 34.7 % of positive control | 20.4 % of positive control | Selective for GSK | – | –
COCCCNCc1ccc(Nc2nccc(-c3c[nH]c4ncccc34)n2)c(OC)c1 [Compound 12, N-(2-Methoxy-4-{[(3-methoxypropyl)amino]methyl}phenyl)-4-(1H-pyrrolo[2,3-b]pyridin-3-yl)pyrimidin-2-amine] | 13124 | −2.3E+05 | 90.7 % of positive control | −0.1 % of positive control | 31 | −1.3E+06 | 0.2 % of positive control | −0.6 % of positive control | – | Selective for CDK | Selective for GSK
O=C(O)c1cc(Nc2ncc3nnn(-c4ccccc4)c3n2)ccc1F [Compound 7, 2-Fluoro-5-[(3-phenyl-3H-[1,2,3]triazolo[4,5-d]pyrimidin-5-yl)amino]benzoic acid] | 3 | −1.4E+06 | 0.0 % of positive control | −0.6 % of positive control | 5296 | 7.0E+07 | 36.6 % of positive control | 30.4 % of positive control | – | Selective for GSK | Selective for CDK
COCCCNS(=O)(=O)c1ccc(Nc2ncc3cnn(C4CCCCC4)c3n2)cc1 [Compound 9, 4-[(1-Cyclohexyl-1H-pyrazolo[3,4-d]pyrimidin-6-yl)amino]-N-[3-(methyloxy)propyl]benzenesulfonamide] | 7156 | −4.2E+04 | 49.4 % of positive control | 0.0 % of positive control | 4816 | 4.5E+07 | 33.3 % of positive control | 19.4 % of positive control | Selective for CDK | – | –
CN1CCCc2cccc(c2)-c2nnc([nH]2)Nc2cccc(c2)CN2CCN(CC2)C(=O)C1 [Compound 43, 21-Methyl-1,8,10,11,21,24,30-heptaazapentacyclo[22.2.2.1˜3,7˜0.1˜9,12˜0.1˜13,17˜]hentriaconta-3(31). 4,6,9,11,13(29), 14,16-octaen-23-one] | 8610 | −2.1E+05 | 59.5 % of positive control | −0.1 % of positive control | 6682 | 5.4E+07 | 46.2 % of positive control | 23.4 % of positive control | Selective for Trk | – | –
O=C1NCc2cccc(c2)-c2ccnc(n2)Nc2ccc(C(=O)N3CCOCC3)c(c2)CN2CCC[C@@H]12 [Compound 44, (18S)-11-(Morpholin-4-ylcarbonyl)-5,7,14,20,28-pentaazapentacyclo[20.3.1.1˜2,6˜0.1˜8,12˜0.0˜14,18˜]octacosa-1(26), 2(28), 3,5,8(27), 9,11,22,24-nonaen-19-one] | 14 | −1.1E+06 | 0.1 % of positive control | −0.5 % of positive control | 226 | −9.5E+05 | 1.6 % of positive control | −0.4 % of positive control | Selective for GSK | – | –
COc1ccc2cc1OCCCC(=O)N(C)CC1CN(Cc3c[nH]c4ncnc(c34)N2)C1 [Compound 45, 10-Methoxy-17-methyl-2,14,15,17,18,19,20,22-octahydro-6H-1-19.21 methano-7,11-(metheno)-12-oxa-2,3,5,6,17,21-hexaazacycloicosa[1,2,3-cd]inden-16(13H)-one] | 8857 | −4.5E+05 | 61.2 % of positive control | −0.2 % of positive control | 9540 | 1.1E+08 | 65.9 % of positive control | 47.9 % of positive control | Selective for Trk | – | –
O=C(O)c1ccc(Nc2ncc3nnn(-c4cccc(F)c4)c3n2)cc1 [Compound 6] | 14827 | −1.8E+05 | 102.4 % of positive control | −0.1 % of positive control | 5118 | 5.8E+07 | 35.4 % of positive control | 25.2 % of positive control | Selective for GSK | – | –
COc1ccc(Nc2cc(Nc3cc(Cl)ccc3O)ncn2)cc1CCl [Compound 10, 4-Chloro-2-[(6-{[3-(chloromethyl)-4-methoxyphenyl]amino}pyrimidin-4-yl)amino]phenol] | 7011 | −6.6E+05 | 48.4 % of positive control | −0.3 % of positive control | 4627 | 6.6E+07 | 32.0 % of positive control | 28.6 % of positive control | Selective for CDK | – | –
